Test results taken from patent US20250135016A1, “MOLECULAR LOGIC GATES FOR CONTROLLED MATERIAL DEGRADATION” (University of Washington, priority 2016, published 2025).
Several values for one entry are separate records, joined by “and”; a condition that tells them apart may be missing. Equal entries are not always repeated. Where two headings read alike, the source gives them in different places. One block for each substance: values may come before it.

What was measured:
[1] = Multi-logic hydrogel treatment and confocal microscopy; format: physicochemical; conditions: three-region gel
Method: Hydrogels were formed sandwiched between an azide-functional glass slide and a Rain-X®-treated glass slide separated by two 0.005″ thick silicone spacers (McMaster-Carr). A precursor solution containing PEG-tetraBCN-FAM (Method S22, 2 mM) and the P crosslinker (Method S7, 4 mM) was injected between the silicone spacers (0.005 inches) and reacted for one hour. Subsequently, a precursor solution of PEG-tetraBCN-Cyanine5 (Method S22, 2 mM) and the R∨P crosslinker (Method S10, 4 mM) was injected between the FAM functionalized region and a silicone spacer and reacted for one hour. This was repeated on the other side of the FAM functionalized region with PEG-tetraBCN-AF568 (Method S22, 2 mM) and R∧P crosslinker (Method S13, 4 mM). Hydrogels were equilibrated and stored in PBS. […]
Hydrogels were imaged using fluorescent confocal microscopy. Three channels—one for each fluorophore—were simultaneously monitored. For visualization, fluorescence corresponding to AF568 (excitation 578 nm, emission 594-627 nm), FAM (excitation 515 nm, emission 520-569 nm), and Cyanine5 (excitation 646 nm, emission 663-675 nm) were false colored as red, green, and blue, respectively.

[2] = all eight input combinations of reductant, MMP enzyme and light; endpoint supernatant fluorescence
[3] = system: hS5 bone marrow-derived stromal cells; experiment: Hydrogel-encapsulated cell release studies; format: cell-based, human
Method: Four human bone marrow-derived stromal cell lines [hS5], including one non-fluorescent control and three each stably transfected to express a single fluorescent protein [mCherry, green fluorescent protein (GFP), or blue fluorescent protein (BFP)], were cultured at 37° C. in Roswell Park Memorial Institute medium 1640 (RPMI-1640, Corning) supplemented with 10% FBS and 1% PS.
Hydrogels were formed sandwiched between an azide-functional glass slide and a Rain-X®-treated glass slide separated by two 0.005″ thick silicone spacers (McMaster-Carr). A precursor solution containing PEG-tetraBCN (Method S22, 2 mM), the P crosslinker (Method S7, 4 mM), and hS5-GFP^+ (40×10^6 cells mL^−1) was injected between the silicone spacers and reacted for one hour. Subsequently, a precursor solution of PEG-tetraBCN (2 mM), the R∨P crosslinker (Method S10, 4 mM), and hS5-BFP^+ (40×10^6 cells mL^−1) was injected between the hS5-GFP^+ encapsulated region and a silicone spacer. […]
Following each degradative step, cells that remained encapsulated in the intact gel were imaged using fluorescent confocal microscopy. Three channels—one for each fluorescent protein—were simultaneously monitored. For visualization, fluorescence corresponding to mCherry (excitation 587 nm, emission 626-703 nm), GFP (excitation 489 nm, emission 499-570 nm), and BFP (excitation 405 nm, emission 413-494 nm) were false colored as red, green, and blue, respectively. […]
Gels were degraded and the viability of the released cells was assessed. […]
Cells released from the gels and stained with the Live/Dead® assay were imaged on a Nikon Eclipse TE2000-U microscope using filter cubes corresponding to both live (excitation 480/40 nm filter, emission 535/50 nm filter) and dead (excitation 560/20 nm filter, emission 630/60 nm filter) staining. Viability was determined for each treatment by standard image analysis. […]

[4] = In situ oscillatory rheology of hydrogel formation with pretreated E∧P crosslinker; format: physicochemical
Method: Reaction products were characterized using matrix-assisted laser desorption/ionization time-of-flight mass spectrometry (MALDI-TOF). […] To further investigate, the enzyme AND photo linker (E∧P) was pretreated with different combinations of enzyme and light, added to a stoichiometrically defined amount of PEG-tetraBCN, and characterized by in situ oscillatory rheology to monitor evolution of material properties.
Oscillatory rheology was performed on an Anton Paar MCR301 rheometer equipped with a cone and plate geometry (25 mm diameter, 1° cone) at 25° C. and 25 Hz with a 1% strain. A solution of PEG-tetraBCN (3 mM, Method S22) and the E∧P crosslinker (6 mM, Method S12) in MMP buffer was reacted in situ, while G′ and G″ were measured as a function of time over the course of two hours. Peptide crosslinkers were pretreated with MMP and/or light as described in Method S24 in experimental triplicate. Hydrogels with similar stiffnesses formed when the E∧P crosslinker was untreated (G′=1660±170), exposed to just light (G′=1580±130), or exposed to just enzyme (G′=1540±110).

[5] = Method: Azide functionalized glass slides were synthesized as reported in previous works. […] PEG3500-diazide (37.5 μL, 40 mM) was then added, and the resulting solution was rapidly mixed, centrifuged, and then pipetted (25 μL) onto the azide functionalized glass slide. The gels were allowed to gel to completion for 1 hr, then covered with a RainX treated glass slide, and PBS (1×) was added to swell and rinse the gel overnight at room temperature, protected from light. The following morning, two of the gels (gel 3 and 4) was exposed to 365 nm light at 20 mW/cm^2 for 10 minutes with a hatched square (100 μm) chrome photomask. Following the light treatment, gel 3 was returned to PBS (1×) and protected from light. Gels 2 and 4 were placed in a solution of Dithiothreitol (DTT, 1 mM) for 4 hours. Gels 2 and 4 were then transferred to PBS (1×) and protected from light for 30 mins. Gel 1 remained in PBS and protected from light the entire time. The resulting fluorescence of these gels were imaged using a confocal scanning microscope at 488 nm.

Response to subsequent reducing treatment ([1]; BME 0.25 mM, 45 minutes, after masked light): fully intact
Response to masked UV light ([1]; λ=365 nm, 10 minute exposure, slitted photomask): degradation
Response to subsequent reducing treatment ([3]; cell-laden tri-color gel, BME 0.25 mM, 37° C., 45 minutes): fully intact
Response to masked UV light ([3]; cell-laden tri-color gel, λ=365 nm, 10 minute exposure, photomask): degradation
Substance: N3-oNB-RGGRK(N3)—NH2 [P]
Hydrogel degradation response [2]: degrading only when the programmed cue was present
Gel degradation for viability studies ([3]; R gels BME 0.25 mM 45 minutes, P gels UV 10 minutes, E gels MMP-8 0.20 nM 60 minutes): complete hydrogel degradation

Final storage modulus G′ ([4]; E∧P linker pretreated with both enzyme and light, did not form a gel): 200±30 Pa
Final storage modulus G′ ([4]; E∧P linker pretreated with enzyme (MMP) only): 1580±130 Pa and 1540±110 Pa
Final storage modulus G′ ([4]; E∧P linker pretreated with light only): 1540±110 Pa and 1580±130 Pa
Final storage modulus G′ ([4]; E∧P linker untreated, reacted with PEG-tetraBCN): 1660±170 Pa
Final loss modulus G″ ([4]; all samples): ~50 Pa
Substance: HCC(CH2)2CO-RGK(CO(CH2)3N3)GPQGIWGQGK(oNB-N3)RK(CO(CH2)3N3)—NH2 [E∧P]

Substance: FAM-GRCG-PL-GCGRK(CO(CH2)3N3)—NH2 [FAM-Photolabile-AND-Reducible Pendant]
Gel fluorescence (FAM release) ([5]; Gel 1, control, PBS only): no visible loss in fluorescence
Gel fluorescence (FAM release) ([5]; Gel 2, DTT only (1 mM, 4 hours)): no visible loss in fluorescence
Gel fluorescence (FAM release) ([5]; Gel 3, photomasked light only (365 nm, 20 mW/cm^2, 10 minutes)): no visible loss in fluorescence
Gel fluorescence (FAM release) ([5]; Gel 4, photomasked light and DTT): release in only the exposed areas
